Several values for one entry are separate records, joined by “and”; a condition that tells them apart may be missing. Equal entries are not always repeated.
B1: MM-121: anti-ErbB3 monoclonal antibody comprising VH and VL sequences as shown in SEQ ID NOs: 1 and 2 (antibody, listed as Homo sapiens, V domains shown)
VH: EVQLLESGGGLVQPGGSLRLSCAASGFTFSHYVMAWVRQAPGKGLEWVSSISSSGGWTLYADSVKGRFTISRDNSKNTLYLQMNSLRAEDTAVYYCTRGLKMATIFDYWGQGTLVTVSS
VL: QSALTQPASVSGSPGQSITISCTGTSSDVGSYNVVSWYQQHPGKAPKLIIYEVSQRPSGVSNRFSGSKSGNTASLTISGLQTEDEADYYCCSYAGSSIFVIFGGGTKVTVL

Legend:
[1] = tested on: MDA-MB-231 triple negative breast cancer xenograft model; assay: MM-121 combination with targeted and chemotherapies in vivo (Example 5); conditions: MM121 300 ug/mouse Q3D, erlotinib 50 mg/kg PO, cetuximab 2 mg/kg Q3D, paclitaxel 10 mg/kg
Description: Balb/c nude mice (female, 4-5 weeks old from Charles River lab) are implanted orthotopically with 10×10^6 cells in mammary pad. Tumors are allowed to reach average of 150 mm^3 in size before randomization into 9 groups of 8 mice, containing mice with a similar size distribution of tumors. […] Treatment is continued for 4 weeks. Tumors are measured twice weekly and tumor volume is calculated as p/6×length×width, where the width is the shorter measurement.

[2] = tested on: MDA-MB-231 triple negative breast cancer xenograft model; assay: Inhibition of tumor growth in vivo by combination treatment with MM-121 and paclitaxel (Example 4); set-up: species or system Balb/c nude mice; conditions: for mean tumor volumes: MM121 150 μg/mouse Q3D ip, paclitaxel 5 mg/kg; for effect on tumor growth (in words): sub-optimal doses, FIG. 3
Text: Treatment is continued for 4 weeks. […] Results:

[3] = tested on: triple negative human mammary carcinoma xenograft MAXF449; assay: Anti-tumor efficacy of MM-121 monotherapy in MAXF449 xenograft; assay type: in vivo, NMRI nude mice; conditions: MM-121 600 μg per mouse IP every three days
Description: An analysis of the anti-tumor efficacy and tolerability of MM-121 treatment of tumor-bearing mice is carried out using triple negative human mammary carcinoma xenograft MAXF449 (ONCOTEST GmbH, Frieburg, Germany) in NMRI nude mice. MAXF449 is a Human tumor explant (histologically described upon explant as solid invasive ductal, and poorly defined) established via subcutaneous injection in serial passages in nude mice. The MAXF449 cells used in these experiments have been passaged 22 times. NMRI nude mice are obtained from Taconic farms, Charles River Laboratories International, or Harlan Laboratories. […]
To investigate anti-tumor efficacy in monotherapy, MM-121 or vehicle control (100 μL) is given to tumor-bearing mice at 600 μg per mouse (MM-121 as a 6 mg/mL solution in PBS) by IP injection every three days. […] Efficacy is determined by comparing tumor growth between the antibody-treated mice and the vehicle control mice and is expressed as the experimental to control ratio of median relative tumor volumes (T/C value). […]
Mice are randomized and therapy begins when a sufficient number of individual tumors have grown to a volume of approximately 200 mm3. Tumors are measured (L×W) by digital caliper measurement and the tumor volume is calculated using the formula Pi/6 (W2×L). […]

[4] = tested on: MDA-MB-231 human triple negative breast cancer cells; assay: MM-121 effects on MDA-MB-231 xenograft (subcutaneous flank or mammary fat pad); assay type: in vivo, Balb/c nude mice; conditions: MM-121 600 ug per mouse IP every 3 days; FIG. 2
Description: Balb/c nude mice are injected under general anesthesia with 10^7 MDA-MB-231 human triple negative breast cancer cells (ATCC) either subcutaneously in the flank or into the mammary fat pad. Mice with established tumors (i.e., after 7-10 days of tumor growth following injection of cells) are then treated IP with either PBS or MM-121 every 3 days with 600 ug MM-121 per mouse as described in Example 1. Tumor volume is measured twice a week as described in Example 1.

[5] = 1st time point column (day head not given; FIG. 3 starts at 28 days following injection)
[6] = 2nd time point column (day head not given)
[7] = 3rd time point column (day head not given)
[8] = 4th time point column (day head not given)
[9] = 5th time point column (day head not given)
[10] = 6th time point column (day head not given)

Row | Molecule | mean tumor volumes ([1]; Day 28) | mean tumor volumes ([1]; Day 32) | mean tumor volumes ([1]; Day 36) | mean tumor volumes ([1]; Day 39) | mean tumor volumes ([1]; Day 43) | mean tumor volumes ([1]; Day 46) | mean tumor volumes ([1]; Day 49) | mean tumor volumes ([1]; Day 53) | mean tumor volumes [2, 5] | mean tumor volumes [2, 6] | mean tumor volumes [2, 7] | mean tumor volumes [2, 8] | mean tumor volumes [2, 9] | mean tumor volumes [2, 10] | effect on tumor growth (in words) [2] | effect on tumor growth (in words) ([3]; FIG. 1) | TGI (tumor growth inhibition) ([3]; MAXF449 xenograft, NMRI nude mice) | effect on tumor growth (in words) [4]
1 | C#Cc1cccc(Nc2ncnc3cc(OCCOC)c(OCCOC)cc23)c1 [erlotinib] | 172.1 mm^3 | 182.1 mm^3 | 216.1 mm^3 | 273.2 mm^3 | 252.8 mm^3 | 245.6 mm^3 | 303.1 mm^3 | 327.4 mm^3 | – | – | – | – | – | – | – | – | – | –
2 | CC(=O)O[C@H]1C(=O)[C@@]2(C)[C@H]([C@H](OC(=O)c3ccccc3)[C@]3(O)C[C@H](OC(=O)[C@H](O)[C@@H](NC(=O)c4ccccc4)c4ccccc4)C(C)=C1C3(C)C)[C@]1(OC(C)=O)CO[C@@H]1C[C@@H]2O [paclitaxel] | 155.2 mm^3 | 167.0 mm^3 | 182.4 mm^3 | 216.6 mm^3 | 228.1 mm^3 | 247.0 mm^3 | 292.6 mm^3 | 383.5 mm^3 | 97.9 mm^3 | 113.5 mm^3 | 144.6 mm^3 | 166.2 mm^3 | 178.8 mm^3 | 202.2 mm^3 | inhibited tumor growth | – | – | –
3 | B1 | 178.6 mm^3 | 197.3 mm^3 | 219.1 mm^3 | 257.8 mm^3 | 269.4 mm^3 | 291.4 mm^3 | 351.3 mm^3 | 425.0 mm^3 | 99.4 mm^3 | 115.5 mm^3 | 137.5 mm^3 | 180.4 mm^3 | 187.2 mm^3 | 242.7 mm^3 | inhibited tumor growth | inhibited or stopped tumor growth, and in some cases reduced tumor size | approximately 200% and 200% | stopped human triple negative breast cancer tumor growth essentially completely

From patent US9518130B2, “Use of ERBB3 inhibitors in the treatment of triple negative and basal-like breast cancers” (Merrimack Pharmaceuticals, Inc., priority 2010, dated 2016)
